This is an account of results in patent publication US20240101749A1, “RESIN COMPOSITION” (4D MEDICINE LIMITED, priority 2021, published 2024).

A short description of data set [1]: UV-vis absorption spectrum in acetone. It is filed as physicochemical. As to the method: Referring now to FIG. 1B, there is shown a synthetic pathway to Reactive Diluent 1, 2, and 3. […] Reactive diluents of the invention are non-white coloured.
The spectra 2a and 2b of Reactive Diluent 3 were recorded in spectroscopy grade acetone, diluted from 1M stock solutions down to 10 μM using serial dilutions. Absorption behaviour was examined from 200 nm to 800 nm, at 1 nm increments, using a ThermoFisher 350 UV-vis spectrophotometer (ThermoFisher Scientific, UK). Absorption maxima at 365, 405, 455, and 500 nm were recorded for comparison.
(§1) Referring also to FIG. 3, there is shown a series of graphs illustrating the absorption behaviour of the resin components in spectroscopy grade acetone, diluted from 1 M stock solutions down to 10 μM using serial dilutions. Absorption behaviour was examined from 200 nm to 800 nm, at 1 nm increments, with absorption maxima quantified at 365, 405, 455, and 500 nm, as indicated in the box in each graph.

Data set [2] in a line: Concentration at which Reactive Diluent 3 acts as a photoinhibitor (absorption vs concentration, inflection point). In kind it is physicochemical. As to the method: as §1
This was used to determine the concentration at which Reactive Diluent 3 would act as a photoinhibitor for wavelengths of interest. At 365 nm, the inflection point of the logarithmic plot of the linear fit was located at ca 0.015M; 405 nm inflection point was located at 0.0131M; 450 nm inflection point was found at 0.099M; 500 nm inflection point was located at 0.1312M.

Regarding `C=CCOC(=O)NCC1(C)CC(NC(=O)OCC=C)CC(C)(C)C1` (centres unmarked) [Reactive Diluent 1], the “absorption maximum (λmax)” value in data set [1] was “do not exhibit an absorption maximum (λmax) of between 350 and 520 nm”.

As to `C=CCNC(=O)NCC1(C)CC(NC(=O)NCC=C)CC(C)(C)C1` (centres unmarked) [Reactive Diluent 2], in data set [1], the “absorption maximum (λmax)” value is “do not exhibit an absorption maximum (λmax) of between 350 and 520 nm”.

For the molecule `C=CCN1C(=O)CC(=O)N(CC2(C)CC(N3C(=O)CC(=O)N(CC=C)C3=O)CC(C)(C)C2)C1=O` (centres unmarked) [Reactive Diluent 3], the “absorption maximum (λmax)” value in data set [1] is “ca. 450 nm”. The “concentration needed in a resin composition to function as a photoinhibitor” value in data set [2] is reported as “at least 0.015 M”. Moreover, in data set [2] (365 nm, acetone), the “inflection point of the logarithmic plot of the linear fit” value is recorded as approximately 0.015 M. For the same molecule, the inflection point in data set [2] (405 nm, acetone) is listed as 0.0131 M; in data set [2] (450 nm, acetone) it was 0.099 M; in data set [2] (500 nm, acetone), 0.1312 M.
